Measured values taken from patent publication EP0974573A1, “PHENYLPROPENONE COMPOUNDS AND MEDICINES CONTAINING THE SAME” (Kabushiki Kaisha Yakult Honsha, priority 1997, dated 1998).

Columns and labels:
SD rats [1] = experiment: Plasma cholesterol elevation inhibitory effects on rats loaded with high cholesterol diet, feed-mixed administration (Test 3); type: in vivo, rat; details: 0.005% of compound added to hyperlipemia inducing diet, ad libitum 3 days
Excerpt: Using 5-week old male SD rats (120-150 g, 10 rats per group, individual feeding), plasma cholesterol elevation inhibitory effects of various compounds in the Examples on rats were studied. To a control group, a feed which had been prepared by adding 1.5% of cholesterol, 0.5% of cholic acid, 10% of coconut oil and 10% of sugar to "F-2 Diet" (product of FUNABASHI FARM CO., LTD.) was given ad libitum as a hyperlipemia inducing diet.
To each test-compound-administered group, on the other hand, a feed which had been prepared by adding 0.005% of the corresponding compound in the Examples to the hyperlipemia inducing diet of the above-described composition was given ad libitum. Further, a normal diet group to which a feed similar to the hyperlipemia inducing diet except for the exclusion of cholesterol was also tested similarly. As a testing method, after these feeds were given ad libitum for 3 days, bloods were drawn on the 4th day from the abdominal aortas of the individual rats under anesthesia with Nembutal. Subsequent to collection of plasma from each blood sample, the plasma cholesterol was quantitated by a "DETERMINER TC555 KIT" (product of Kyowa Medex Co., Ltd.) while the HDL cholesterol was quantitated by "DETERMINER HDL KIT" (product of Kyowa Medex Co., Ltd.). The liver cholesterol was measured by extracting it in accordance with the Folch's method and then measuring it with a "DETERMINER TC555 KIT". Statistical processing of the data so obtained was conducted by the Danett's test.

rat-derived ACAT = experiment: Inhibitory effects on rat-derived ACAT (Test 1); type: biochemical; details: crude enzyme from microsome protein fractions of rat liver, (14C)-oleoyl-CoA substrate, 37°C
Protocol: To test effects on ACAT, a reaction was conducted in vitro to form (^14C)-cholesteryl oleate from endogeneous cholesterol in the presence of (^14C)-oleoyl-CoA as a substrate by using a crude enzyme prepared from microzome protein fractions of a rat liver.
The reaction mixture had the following composition: 20 µℓ of microsome protein (1.83 mg/mℓ), 20 µℓ of (^14C)-oleoyl-CoA (5 µCi/mℓ, BSA: 96 nmol/mℓ), 106 µℓ of 100 mM phosphate buffer (containing 5 mM of dithiothreitol, pH 7.4) and a sample dissolved in 4 µℓ of methanol or dimethyl sulfoxide; 150 µℓ in total.
The reaction was conducted at 37°C. After an elapse of a predetermined reaction time (18 minutes in general), a 2:1 mixture of chloroform and methanol (5.65 mℓ) was added to terminate the reaction. A 0.04 N aquous solution of hydrochloric acid (0.98 mℓ) and as a carrier, cholesteryl oleate were added, followed by extraction for 20 minutes on a shaking apparatus. The mixture was then allowed to stand overnight in a cold dark place. On the following day, the separated lower chloroform layer was extracted in its entirety and was dried under a nitrogen gas stream. The remaining upper layer was added with the lower layer (5.65 mℓ) of the Folch's partition solution, and was extracted again. After the mixture was allowed to stand overnight in a dark place, the lower layer was drawn in its entirety. This lower layer was combined with the lower chloroform layer fraction, which had already been dried to solid, and the mixture was then dried to solid.
The solid was then dissolved in chlorofrom (200 µℓ), and the solution was coated in its entirety on a G60 plate (aluminum sheet) for silica gel thin layer chromatography. After the solid was developedover 10 cm with a 10:190 mixture of diethyl ether and petroleum ether, autoradiography was conducted and the formation of (^14C)-colesteryl oleate was confirmed. This section was then cut off. The radioactivity of each sample was measured by subjecting it to liquid scintillation counting for 5 minutes in toluene or was measured for 30 minutes by a "Betascope" (manufactured by BETA-GEN INC. The results so obtained are shown in Table 1. Table 1

SD rats [2] = experiment: Provisional toxicity test of Compound 6; type: in vivo, rat; details: female SD rats, oral by stomach tube in 1.5% CMC, 14 days or 28 days, 100, 250 or 250 mg/kg/day
Protocol: Concerning Compound 6, a provisional toxicity test was conducted.
Using female SD rats (5-weeks old), the test was conducted at a size of 6 rats per group. The animals were subjected to group feeding, and were allowed to take both "F-2 Feed" (product of FUNABASHI FARM CO., LTD.) and tap water ad libitum.
Compound 6 which had been suspended in a 1.5% aqueous solution of CMC was continuously and orally administered by a stomach tube for 14 days or 28 days such that the dosage became 100, 250 or 250 mg/kg/day. To a control group, on the other hand, an aqueous solution of CMC was administered.
Therefore, safety has been confirmed.

SD rats [3] = experiment: Plasma cholesterol elevation inhibitory effects of Compound 6 on rats, oral suspension in carboxymethylcellulose (Test 10); type: in vivo, rat; details: 7 days; for HDLC: plasma HDL cholesterol; for PL: plasma phospholipid; for TC: plasma total cholesterol; for TG: plasma triglyceride
Excerpt: Using 5-week old male SD rats (120-150 g, 8 rats per group, group feeding), plasma cholesterol elevation inhibitory effects of compound 6 in Examples on rats were studied.
To rats in a control group, only a 1.5% aqueous solution of carboxymethylcellulose was orally administered once a day for 7 days. During the last 3 days, a hyperlipemia inducing diet [a feed prepared by adding 1.5% of cholesterol, 0.5% of cholic acid, 10% of coconut oil and 10% of sugar to "F-2 Diet" (product of FUNABASHI FARM CO., LTD.)] was given ad libitum. To rats in a control group (normal diet), however, a feed (normal diet) similar to the hyperlipemia inducing diet except for the exclusion of cholesterol was given ad libitum.
To test-compound-administered groups, on the other hand, compound 6 suspended in a 1.5% aqueous solution of carboxymethylcellulose was continuously and orally administered at dosages of 5, 10 and 20 mg/kg/day, respectively, once a day for 7 days. During the last 3 days, a hyperlipemia inducing diet [a feed prepared by adding 1.5% of cholesterol, 0.5% of cholic acid, 10% of coconut oil and 10% of sugar to "F-2 Diet" (product of FUNABASHI FARM CO., LTD.)] was given ad libitum.
On the 4th day after the initiation of feeding of the hyperlipemia inducing diet and the normal diet, bloods were drawn from the abdominal aortas of the individual rats under anesthesia with Nembutal. Subsequent to collection of plasma from each blood sample, the plasma cholesterol was quantitated by an "AUTOSERA S-CHO KIT" (product of Daiichi Pure Chemicals Co., Ltd.), the plasma triglyceride was guantitated by an "AUTOSERA TG-N KIT" (product of Daiichi Pure Chemicals Co., Ltd.), and the plasma phospholipid was quantitated by an "AUTOSERA PL KIT" (product of Daiichi Pure Chemicals Co., Ltd.). Further, the HDL cholesterol was quantitated by an "AUTOSERA S-CHO KIT" (product of Daiichi Pure Chemicals Co., Ltd.) after fractionating it by a "DETERMINER HDL KIT" (product of Kyowa Medex Co., Ltd.). The liver lipid level was quantitated by a commercial measuring kit in a similar manner as in the measurement of plasma lipid subsequent to its extraction by the Folch's method. Statistical processing of the data so obtained was conducted by the Dunnet's test.

[4] = 5 mg/kg oral in carboxymethylcellulose
[5] = 10 mg/kg oral in carboxymethylcellulose
[6] = 20 mg/kg oral in carboxymethylcellulose

IC50 (rat-derived ACAT): 11 nM
SMILES: CCCCCCCCOc1c(OC)cc(/C=C/C(=O)NN2CCN(c3ccc(C)c(C)c3)CC2)cc1OC [Compound 6, N-[4-(3,4-dimethylphenyl)-1,4-diazacyclohexyl]-(2E)-3-(3,5-dimethoxy-4-octyloxyphenyl)-2-propenamide]
Inhibitory rate (%) of plasma total cholesterol elevation in rat (SD rats [1]): 79% | difference between administered groups and control group in external appearance and results of various biochemical tests (SD rats [2]): no difference was observed | Inhibitory rate (%) of plasma total cholesterol elevation (SD rats [3]; 5 mg/kg/day oral in 1.5% carboxymethylcellulose): 34% | Inhibitory rate (%) of plasma total cholesterol elevation (SD rats [3]; 10 mg/kg/day oral in 1.5% carboxymethylcellulose): 57% | Inhibitory rate (%) of plasma total cholesterol elevation (SD rats [3]; 20 mg/kg/day oral in 1.5% carboxymethylcellulose): 66% | HDLC (SD rats [3]; [4]): 19.3 ± 4.5 mg/dL | HDLC (SD rats [3]; [5]): 20.5 ± 4.0 mg/dL | HDLC (SD rats [3]; [6]): 22.8 ± 2.2 mg/dL | PL (SD rats [3]; [4]): 243.2 ± 42.5 mg/dL | PL (SD rats [3]; [5]): 206.7 ± 50.6 mg/dL | PL (SD rats [3]; [6]): 203.6 ± 21.3 mg/dL | TC (SD rats [3]; [4]): 303.1 ± 99.4 mg/dL | TC (SD rats [3]; [5]): 226.6 ± 94.7 mg/dL | TC (SD rats [3]; [6]): 196.8 ± 44.1 mg/dL | TG (SD rats [3]; [4]): 202.3 ± 99.7 mg/dL | TG (SD rats [3]; [5]): 159.0 ± 68.6 mg/dL | TG (SD rats [3]; [6]): 187.6 ± 79.3 mg/dL
